In ChEMBL document CHEMBL4028852, “Design of a Chemical Probe for the Bromodomain and Plant Homeodomain Finger-Containing (BRPF) Family of Proteins” (J Med Chem, 2017):

Key:
[1] = Inhibition of cell proliferation of human RERF-LC-Sq1 cells after 72 hrs by MTS assay; format: functional; details: RERF-LC-Sq1, 72 h
Liver = test: Metabolic stability in mouse liver microsomes by UPLC-MS/MS analysis; format: ADME, microsome
[2] = target: T1, Bromodomain-containing protein 1 (Homo sapiens, UniProt O95696); test: Inhibition of His-tagged BRPF2 (unknown origin) after 30 mins by alphaScreen assay
T1 sequence (O95696 whole entry): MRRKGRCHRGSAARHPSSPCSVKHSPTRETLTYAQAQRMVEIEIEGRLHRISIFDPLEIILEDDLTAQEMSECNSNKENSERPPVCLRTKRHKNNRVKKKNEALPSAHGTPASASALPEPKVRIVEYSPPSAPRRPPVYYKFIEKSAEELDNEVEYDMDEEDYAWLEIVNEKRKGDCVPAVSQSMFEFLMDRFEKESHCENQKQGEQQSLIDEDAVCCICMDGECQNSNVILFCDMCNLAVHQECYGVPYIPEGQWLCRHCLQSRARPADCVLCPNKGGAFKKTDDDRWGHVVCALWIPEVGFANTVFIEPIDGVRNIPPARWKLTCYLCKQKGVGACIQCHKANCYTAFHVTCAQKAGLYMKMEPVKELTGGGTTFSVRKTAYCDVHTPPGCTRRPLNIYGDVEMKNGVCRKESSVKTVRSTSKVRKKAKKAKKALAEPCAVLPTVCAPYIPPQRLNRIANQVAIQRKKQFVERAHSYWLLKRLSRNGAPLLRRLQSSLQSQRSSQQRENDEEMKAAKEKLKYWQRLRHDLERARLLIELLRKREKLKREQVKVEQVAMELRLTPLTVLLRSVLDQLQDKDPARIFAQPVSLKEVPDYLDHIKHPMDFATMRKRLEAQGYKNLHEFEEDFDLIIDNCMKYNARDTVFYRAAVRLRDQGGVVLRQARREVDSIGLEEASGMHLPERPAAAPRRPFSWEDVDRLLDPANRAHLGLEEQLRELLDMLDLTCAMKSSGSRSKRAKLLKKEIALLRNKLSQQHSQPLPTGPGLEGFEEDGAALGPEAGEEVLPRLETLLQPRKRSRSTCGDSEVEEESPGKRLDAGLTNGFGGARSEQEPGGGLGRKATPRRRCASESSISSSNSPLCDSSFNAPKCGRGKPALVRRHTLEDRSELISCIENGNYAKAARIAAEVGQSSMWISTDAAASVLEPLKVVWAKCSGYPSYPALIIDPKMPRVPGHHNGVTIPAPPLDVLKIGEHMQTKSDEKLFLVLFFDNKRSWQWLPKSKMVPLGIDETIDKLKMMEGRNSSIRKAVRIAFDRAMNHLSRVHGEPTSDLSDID

[3] = Apparent permeability across apical to basolateral side in human Caco2 cells at 10 uM after 2 hrs by LC-MS/MS analysis; format: ADME, cell-based; details: Caco-2
[4] = target: T2, Bromodomain and PHD finger-containing protein 3 (Homo sapiens, UniProt Q9ULD4); test: Inhibition of human BRPF3 (588 to 701 residues) expressed in Escherichia coli BL21 after 1 hr by BROMOscan assay
T2 sequence (Q9ULD4 whole entry): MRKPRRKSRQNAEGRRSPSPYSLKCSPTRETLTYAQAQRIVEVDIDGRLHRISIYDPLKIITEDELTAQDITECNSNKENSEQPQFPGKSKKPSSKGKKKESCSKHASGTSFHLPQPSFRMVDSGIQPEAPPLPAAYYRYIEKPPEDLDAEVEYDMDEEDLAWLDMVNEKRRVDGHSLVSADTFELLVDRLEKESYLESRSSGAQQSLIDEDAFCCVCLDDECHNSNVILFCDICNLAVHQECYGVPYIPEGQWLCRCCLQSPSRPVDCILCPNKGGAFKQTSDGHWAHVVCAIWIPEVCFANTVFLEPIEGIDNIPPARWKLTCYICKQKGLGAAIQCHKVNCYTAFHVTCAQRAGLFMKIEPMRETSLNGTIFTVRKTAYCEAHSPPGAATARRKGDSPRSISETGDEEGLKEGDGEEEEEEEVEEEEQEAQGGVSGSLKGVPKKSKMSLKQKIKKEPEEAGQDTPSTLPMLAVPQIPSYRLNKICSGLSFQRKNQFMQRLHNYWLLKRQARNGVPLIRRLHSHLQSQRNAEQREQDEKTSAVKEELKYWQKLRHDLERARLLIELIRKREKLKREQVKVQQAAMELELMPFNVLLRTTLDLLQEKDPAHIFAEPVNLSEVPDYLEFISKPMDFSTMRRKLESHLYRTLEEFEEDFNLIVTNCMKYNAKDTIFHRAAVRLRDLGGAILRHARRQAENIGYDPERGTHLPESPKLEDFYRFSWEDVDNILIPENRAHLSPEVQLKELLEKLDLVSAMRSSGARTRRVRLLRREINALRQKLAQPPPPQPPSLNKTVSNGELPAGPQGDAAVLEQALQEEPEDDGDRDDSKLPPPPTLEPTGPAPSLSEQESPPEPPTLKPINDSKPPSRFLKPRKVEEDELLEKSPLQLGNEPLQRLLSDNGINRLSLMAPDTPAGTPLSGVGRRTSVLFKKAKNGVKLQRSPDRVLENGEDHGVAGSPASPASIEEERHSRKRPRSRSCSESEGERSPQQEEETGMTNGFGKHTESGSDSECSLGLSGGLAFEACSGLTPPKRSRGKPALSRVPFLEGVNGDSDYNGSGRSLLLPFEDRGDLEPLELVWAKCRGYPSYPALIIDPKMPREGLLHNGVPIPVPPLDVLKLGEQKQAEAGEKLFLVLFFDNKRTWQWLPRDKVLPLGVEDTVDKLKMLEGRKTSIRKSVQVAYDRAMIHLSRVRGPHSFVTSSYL

Row | IC50 [4] | SMILES | GI50 [1] | Stability (Liver) | IC50 [2] | Papp A→B at 2 h, 10 µM [3]
1 |  | COc1cc(C#N)ccc1S(=O)(=O)Nc1ccc2c(c1)cc(C)c(=O)n2C | 16.6 µM | Stable | 0.619 µM | 11 ×10⁻⁶ cm/s
2 | > 100 µM | Cn1c(=O)ccc2cc(S(=O)(=O)Nc3ccccc3)ccc21 |  |  |  | 
3 | 4.6 µM | COc1cc(C#N)ccc1S(=O)(=O)Nc1ccc2c(c1)cc(C(C)C)c(=O)n2C |  |  |  | 
